Values of other authors as cited in US20240041762A1 (Zambon S.p.A., priority 2020, published 2024).

Assays:
[1] = test system: invasive aspergillosis; conditions: in vivo

Compound | activity against invasive aspergillosis [1] | ELF exposure as fraction of the plasma concentration (healthy volunteers) | concentration in the alveolar cells with respect to the plasma concentration (healthy volunteers) | concentrations in bronchoalveolar lavage fluid and lung tissue, times lower than plasma (other cases)
OC(Cn1cncn1)(Cn1cncn1)c1ccc(F)cc1F [Fluconazole] | not active |  |  | 
CCC(C)n1ncn(-c2ccc(N3CCN(c4ccc(OCC5COC(Cn6cncn6)(c6ccc(Cl)cc6Cl)O5)cc4)CC3)cc2)c1=O (stereo not shown) [itraconazole] |  | approximately ⅓ | more than double | 10 times
